{"source": "patent US20240148714A1", "about": "“Triple Negative Breast Cancer Treatment Method” (Exelixis, Inc., priority 2016, published 2024)", "key": {"[1]": {"system": "metastatic TNBC", "test": "Phase II study of cabozantinib in metastatic TNBC: objective response (RECIST 1.1), clinical benefit, PFS", "assay_type": "in vivo, human", "procedure": "(§1) Experimental design: In this single-arm, two-stage phase 2 study, patients with metastatic TNBC with measurable disease by RECIST and up to 3 lines of prior chemotherapy for metastatic disease received cabozantinib 60 mg daily on a 21-day cycle. Patients were restaged 6 weeks following treatment initiation and every 9 weeks thereafter. The primary endpoint was objective response rate (ORR). Predefined secondary endpoints included progression free survival (PFS) and toxicity. Here, we examined cellular biomarkers using flow cytometry in serial blood samples collected at days 0 (baseline/pre-treatment), 8, 22, 43, and 64 of cabozantinib treatment. Mixed effect models were used to evaluate the changes of biomarker levels over time from baseline to day 64. Wilcoxon signed rank test were used to evaluate whether the change of biomarker levels from baseline to day 8 were different by clinical benefit. Adjusted p-values controlling false discovery rate were used to adjust for multiple comparisons.\n(§2) Study Design and Treatment: As indicated, this was a single-arm, two-stage phase II study assessing the efficacy of cabozantinib monotherapy in patients with mTNBC. Treatment consisted of oral dosing of cabozantinib at 60 mg daily over a 21-day cycle. Patients underwent radiographic restaging at 6 weeks and every 9 weeks thereafter. Patients with complete or partial RECIST responses continued to receive study treatment, whereas those with progressive disease were taken off study. Dose reductions for toxicity occurred if patients experienced grade 3 or 4 neutropenia or thrombocytopenia, or nonhematologic adverse events. From the starting dose of 60 mg daily, doses were reduced as needed to 40 and 20 mg daily. For the purposes of determining the effect of cabozantinib treatment on pain and analgesic medication use, pain was assessed by a participant-reported questionnaire, and daily analgesic medication usage was recorded. These were completed at baseline and during week 3, 6, and every 6 weeks thereafter until the date of the participant's last follow-up visit.\n(§3) The primary endpoint was the activity of cabozantinib, as defined by objective response rate (ORR) in patients with mTNBC. Predefined secondary endpoints included progression-free survival (PFS), toxicity, and pain. Correlative studies included analysis of MET and phospho-MET expression in archival tumor tissue, and molecular and cellular biomarkers of cabozantinib. Cellular biomarkers were examined using flow cytometry in serial blood samples collected at days 0 (baseline/pre-treatment), 8, 22, 43, and 64 of cabozantinib treatment. Mixed effect models were used to evaluate the changes of biomarker levels over time from baseline to day 64. Wilcoxon signed rank test were used to evaluate whether the change of biomarker levels from baseline to day 8 were different by clinical benefit. Adjusted p-values controlling false discovery rate were used to adjust for multiple comparisons.\nStatistical Analysis: This study used Simon optimal two-stage design to control type I error at 10% and have at least 90% power to detect the acceptable response rate. By study design, 13 participants were to be enrolled in the first stage. If there was at least 1 response, accrual was to continue to the second stage, where an additional 22 patients were to be enrolled. If there were at least 4 responses among the 35 total patients, the regimen was to be considered worthy of further study. With a true response rate of 5%, the chance that the regimen would be declared worthy of further study was 10%, and with a true response rate of 20%, the chance that the regimen would be declared worthy of further study was 90%.\nObjective response was evaluated by using RECIST1.1. […] Objective response rate was reported with 95% confidence interval (CI) for the two stage designs. PFS and 95% CI were described using Kaplan-Meier methods. […]"}, "[2]": {"test": "Phase II study in metastatic TNBC: toxicity / adverse events", "assay_type": "in vivo, human", "procedure": "as §1, §2, §3"}}, "note": "Values joined by “and” are separate entries in the source; they are usually repeats but may differ in a detail not shown here. Equal entries are not always repeated."}
{"smiles": "COc1cc2nccc(Oc3ccc(NC(=O)C4(C(=O)Nc5ccc(F)cc5)CC4)cc3)c2cc1OC", "note": "[cabozantinib]", "values": [{"measurement": "clinical benefit rate (PR+SD) at 15 weeks", "setting": "[1]; 60 mg daily, 35 patients", "result": 34, "unit": "%"}, {"measurement": "median PFS", "setting": "[1]; 60 mg daily, 35 patients", "result": 2.0, "unit": "months"}, {"measurement": "objective response rate (ORR)", "setting": "[1]; 60 mg daily, 35 patients, as previously reported (ASCO 2015)", "result": 11, "unit": "%"}, {"measurement": "objective response rate (ORR)", "setting": "[1]; 60 mg daily, 35 patients, confirmed PR, RECIST 1.1", "result": 9, "unit": "%"}, {"measurement": "time on treatment of individual patients with PR", "setting": "[1]; 17 cycles and 8 cycles of protocol therapy", "result": "11.7 months and 6.5 months"}, {"measurement": "Best overall response: Not evaluated due to toxicity", "setting": "[1]; 35 patients", "result": "1 (3) n (%)"}, {"measurement": "Best overall response: PD", "setting": "[1]; 35 patients", "result": "11 (31) n (%)"}, {"measurement": "Best overall response: PR", "setting": "[1]; 35 patients", "result": "3 (9) n (%)"}, {"measurement": "Best overall response: SD", "setting": "[1]; 35 patients", "result": "20 (57) n (%)"}, {"measurement": "Best overall response: SD <15 weeks", "setting": "[1]; 35 patients", "result": "11 (31) n (%)"}, {"measurement": "Best overall response: SD ≥15 weeks", "setting": "[1]; 35 patients", "result": "9 (26) n (%)"}, {"measurement": "median PFS", "setting": "[1]; high baseline sMET (>795 ng/mL median value)", "result": 3.3, "unit": "months"}, {"measurement": "patients off treatment due to progressive disease", "setting": "[1]; human, in vivo", "result": 91, "unit": "%"}, {"measurement": "patients with clinically progressive disease before protocol specified tumor assessment", "setting": "[1]; included in PD", "result": "^aIncluding 7 patients(20%) with clinically progressive disease before protocol specified tumor assessment."}, {"measurement": "median PFS", "setting": "[1]; low baseline sMET (<795 ng/mL)", "result": 1.3, "unit": "months"}, {"measurement": "patients who achieved PR", "setting": "[1]; of 35 patients", "result": 3, "unit": "patients"}, {"measurement": "number of grade 3 adverse events", "setting": "[2]; 35 patients", "result": 15}, {"measurement": "Anorexia", "setting": "[2]; Maximum grade Mild", "result": 10}, {"measurement": "Bone pain", "setting": "[2]; Maximum grade Mild", "result": 0}, {"measurement": "Diarrhea", "setting": "[2]; Maximum grade Mild", "result": 8}, {"measurement": "Dysgeusia", "setting": "[2]; Maximum grade Mild", "result": 5}, {"measurement": "Elavated lipase", "setting": "[2]; Maximum grade Mild", "result": 0}, {"measurement": "Elevated alanine aminotransferase", "setting": "[2]; Maximum grade Mild", "result": 6}, {"measurement": "Elevated aspartate aminotransferase", "setting": "[2]; Maximum grade Mild", "result": 7}, {"measurement": "Fatigue", "setting": "[2]; Maximum grade Mild", "result": 18}, {"measurement": "Hypertension", "setting": "[2]; Maximum grade Mild", "result": 6}, {"measurement": "Hypophosphatemia", "setting": "[2]; Maximum grade Mild", "result": 0}, {"measurement": "Infection", "setting": "[2]; Maximum grade Mild", "result": 0}, {"measurement": "Nausea", "setting": "[2]; Maximum grade Mild", "result": 10}, {"measurement": "Oral mucositis", "setting": "[2]; Maximum grade Mild", "result": 11}, {"measurement": "PPE", "setting": "[2]; Maximum grade Mild", "result": 3}, {"measurement": "Prolonged activated partial thromboplastin time", "setting": "[2]; Maximum grade Mild", "result": 0}, {"measurement": "Thromboembolic event", "setting": "[2]; Maximum grade Mild", "result": 0}, {"measurement": "Wound dehiscence", "setting": "[2]; Maximum grade Mild", "result": 0}, {"measurement": "Anorexia", "setting": "[2]; Maximum grade Moderate", "result": 2}, {"measurement": "Bone pain", "setting": "[2]; Maximum grade Moderate", "result": 0}, {"measurement": "Diarrhea", "setting": "[2]; Maximum grade Moderate", "result": 6}, {"measurement": "Dysgeusia", "setting": "[2]; Maximum grade Moderate", "result": 2}, {"measurement": "Elavated lipase", "setting": "[2]; Maximum grade Moderate", "result": 0}, {"measurement": "Elevated alanine aminotransferase", "setting": "[2]; Maximum grade Moderate", "result": 0}, {"measurement": "Elevated aspartate aminotransferase", "setting": "[2]; Maximum grade Moderate", "result": 3}, {"measurement": "Fatigue", "setting": "[2]; Maximum grade Moderate", "result": 9}, {"measurement": "Hypertension", "setting": "[2]; Maximum grade Moderate", "result": 4}, {"measurement": "Hypophosphatemia", "setting": "[2]; Maximum grade Moderate", "result": 0}, {"measurement": "Infection", "setting": "[2]; Maximum grade Moderate", "result": 0}, {"measurement": "Nausea", "setting": "[2]; Maximum grade Moderate", "result": 0}, {"measurement": "Oral mucositis", "setting": "[2]; Maximum grade Moderate", "result": 2}, {"measurement": "PPE", "setting": "[2]; Maximum grade Moderate", "result": 9}, {"measurement": "Prolonged activated partial thromboplastin time", "setting": "[2]; Maximum grade Moderate", "result": 0}, {"measurement": "Thromboembolic event", "setting": "[2]; Maximum grade Moderate", "result": 0}, {"measurement": "Wound dehiscence", "setting": "[2]; Maximum grade Moderate", "result": 0}, {"measurement": "Anorexia", "setting": "[2]; Maximum grade Severe", "result": 0}, {"measurement": "Bone pain", "setting": "[2]; Maximum grade Severe", "result": 1}, {"measurement": "Diarrhea", "setting": "[2]; Maximum grade Severe", "result": 0}, {"measurement": "Dysgeusia", "setting": "[2]; Maximum grade Severe", "result": 0}, {"measurement": "Elavated lipase", "setting": "[2]; Maximum grade Severe", "result": 3}, {"measurement": "Elevated alanine aminotransferase", "setting": "[2]; Maximum grade Severe", "result": 1}, {"measurement": "Elevated aspartate aminotransferase", "setting": "[2]; Maximum grade Severe", "result": 2}, {"measurement": "Fatigue", "setting": "[2]; Maximum grade Severe", "result": 0}, {"measurement": "Hypertension", "setting": "[2]; Maximum grade Severe", "result": 2}, {"measurement": "Hypophosphatemia", "setting": "[2]; Maximum grade Severe", "result": 1}, {"measurement": "Infection", "setting": "[2]; Maximum grade Severe", "result": 1}, {"measurement": "Nausea", "setting": "[2]; Maximum grade Severe", "result": 0}, {"measurement": "Oral mucositis", "setting": "[2]; Maximum grade Severe", "result": 0}, {"measurement": "PPE", "setting": "[2]; Maximum grade Severe", "result": 1}, {"measurement": "Prolonged activated partial thromboplastin time", "setting": "[2]; Maximum grade Severe", "result": 1}, {"measurement": "Thromboembolic event", "setting": "[2]; Maximum grade Severe", "result": 1}, {"measurement": "Wound dehiscence", "setting": "[2]; Maximum grade Severe", "result": 1}, {"measurement": "Anorexia", "setting": "[2]; all grades", "result": "12 (34) Total (% of 35)"}, {"measurement": "Bone pain", "setting": "[2]; all grades", "result": "1 (3) Total (% of 35)"}, {"measurement": "Diarrhea", "setting": "[2]; all grades", "result": "14 (40) Total (% of 35)"}, {"measurement": "Dysgeusia", "setting": "[2]; all grades", "result": "7 (20) Total (% of 35)"}, {"measurement": "Elavated lipase", "setting": "[2]; all grades", "result": "3 (9) Total (% of 35)"}, {"measurement": "Elevated alanine aminotransferase", "setting": "[2]; all grades", "result": "7 (20) Total (% of 35)"}, {"measurement": "Elevated aspartate aminotransferase", "setting": "[2]; all grades", "result": "12 (34) Total (% of 35)"}, {"measurement": "Fatigue", "setting": "[2]; all grades", "result": "27 (77) Total (% of 35)"}, {"measurement": "Hypertension", "setting": "[2]; all grades", "result": "12 (34) Total (% of 35)"}, {"measurement": "Hypophosphatemia", "setting": "[2]; all grades", "result": "1 (3) Total (% of 35)"}, {"measurement": "Infection", "setting": "[2]; all grades", "result": "1 (3) Total (% of 35)"}, {"measurement": "Nausea", "setting": "[2]; all grades", "result": "10 (29) Total (% of 35)"}, {"measurement": "Oral mucositis", "setting": "[2]; all grades", "result": "13 (37) Total (% of 35)"}, {"measurement": "PPE", "setting": "[2]; all grades", "result": "13 (37) Total (% of 35)"}, {"measurement": "Prolonged activated partial thromboplastin time", "setting": "[2]; all grades", "result": "1 (3) Total (% of 35)"}, {"measurement": "Thromboembolic event", "setting": "[2]; all grades", "result": "1 (3) Total (% of 35)"}, {"measurement": "Wound dehiscence", "setting": "[2]; all grades", "result": "1 (3) Total (% of 35)"}, {"measurement": "Diarrhea", "setting": "[2]; all grades, possibly related", "result": 40, "unit": "%"}, {"measurement": "Fatigue", "setting": "[2]; all grades, possibly related", "result": 77, "unit": "%"}, {"measurement": "Oral mucositis", "setting": "[2]; all grades, possibly related", "result": 37, "unit": "%"}, {"measurement": "palmar-plantar erythrodysesthesia (PPE)", "setting": "[2]; all grades, possibly related", "result": 37, "unit": "%"}, {"measurement": "patients requiring dose reduction", "setting": "[2]; from 60 mg daily", "result": 34, "unit": "%"}, {"measurement": "dose reduction due to PPE", "setting": "[2]; in vivo", "result": 4, "unit": "patients"}, {"measurement": "dose reduction due to other toxicities", "setting": "[2]; in vivo", "result": 8, "unit": "patients"}, {"measurement": "grade 3 elevated aspartate aminotransferase", "setting": "[2]; in vivo", "result": 2, "unit": "n"}, {"measurement": "grade 3 elevated lipase", "setting": "[2]; in vivo", "result": 3, "unit": "n"}, {"measurement": "grade 3 hypertension", "setting": "[2]; in vivo", "result": 2, "unit": "n"}, {"measurement": "grade 4 toxicities", "setting": "[2]; in vivo", "result": "no grade 4 toxicities"}, {"measurement": "patients off treatment due to toxicity", "setting": "[2]; in vivo", "result": 9, "unit": "%"}, {"measurement": "patients who omitted at least one dose due to toxicity", "setting": "[2]; in vivo", "result": 26, "unit": "patients"}, {"measurement": "tolerability", "setting": "[2]; in vivo", "result": "well tolerated"}]}
